From patent US20100196882A1, “GALECTIN-3 nsSNP MARKER FOR CANCER” (priority 2009, published 2010)

Experiments:
Type in all cases: cell-based, human
BT-549 Gal-3 P^64 cells [1] = assay: Western blot analysis of PARP cleavage after cisplatin treatment; details: galectin-3 P^64 expressing cells, 50 μM cisplatin, 24, 48, 72 hours
Experimental: (§1) FIGS. 4I and 4II show cisplatin induced apoptosis of BT-549 cells and cloned variants, FIG. 4I: % apoptosis in cells treated with 25 uM cisplatin for 72 hr at 37° C. and analyzed following MTT assay (ODs in the untreated control cells were calculated as 100%, and the values are the average of triplicate experiments, bars represent ±SD, *P>0.001), FIG. 4II: Western blot analysis of the expression of PARP in cells treated with 50 μM cisplatin after 24, 48, and 72 hours, IIA: BT-549; IIB: BT-549 Gal-3 H^64; IIC: BT-549 Gal-3 P^64 (β-Actin was used as loading control. 1—untreated; 2—24 hours; 3—48 hours; 4—72 hours), FIGS. 4IIIA-B and 4IIIA′-C′: Immunohistochemical analysis of intact and cleaved galectin-3 in breast cancer progression. To investigate the possible functional significance of this allelic variation, BT-549 stable cell clones over-expressing either Galectin-3 P^64 or H^64 variant after transfection, selection, and cloning of BT-549 galectin-3 null cells were generated. […] In parental and P64 clone, the apoptotic cells were 76.5±1.34% and 71.5±3.02% respectively (FIG. 4I). That the cells' death was due to apoptosis was confirmed by the cleavage of PARP. […] A-A′: normal breast tissue, B-B′: ductal hyperplasia, C-C′: infiltrating lobular carcinoma. Arrows in B′ and C′ indicate the cleaved protein, representative pictures are presented from a study of 5 normal breast tissues, 10 lobular hyperplasia, and 8 infiltrating lobular carcinoma cases. To determine if cell death is due to apoptosis, 1×10^6 cells were seeded in 100 mm Petri dishes. After 24 hours of serum starvation, the cells were incubated with […]. After 24, 48, 72 hours, the cells were trypsinized, lysed and equivalent number of cells (1×10^5) were subjected to SDS-PAGE and Western blot analysis with a 1:200 dilution of anti-poly (ADP-ribose) polymerase (PARP), mouse monoclonal antibody (BioMol, Plymouth Meeting, Pa.). Blots were also immuno-reacted with a 1:5000 dilution of anti-b-actin mouse monoclonal antibody to normalize for variation in protein loading. […]

BT-549 cells [2] = assay: as above; details: parental BT-549 cells, 50 μM cisplatin, 24, 48, 72 hours
Experimental: as §1

BT-549 Gal-3 H^64 cells [3] = assay: as above; details: galectin-3 H^64 cells, 50 μM cisplatin, 24, 48, 72 hours
Experimental: as §1

BT-549 Gal-3 P^64 cells [4] = assay: Cisplatin induced apoptosis, MTT assay; details: BT-549 galectin-3 P64 clone, 25 uM cisplatin, 72 hr, 37° C.
Experimental: (§2) FIGS. 4I and 4II show cisplatin induced apoptosis of BT-549 cells and cloned variants, FIG. 4I: % apoptosis in cells treated with 25 uM cisplatin for 72 hr at 37° C. and analyzed following MTT assay (ODs in the untreated control cells were calculated as 100%, and the values are the average of triplicate experiments, bars represent ±SD, *P>0.001), FIG. 4II: Western blot analysis of the expression of PARP in cells treated with 50 μM cisplatin after 24, 48, and 72 hours, IIA: BT-549; IIB: BT-549 Gal-3 H^64; IIC: BT-549 Gal-3 P^64 (β-Actin was used as loading control. 1—untreated; 2—24 hours; 3—48 hours; 4—72 hours), FIGS. 4IIIA-B and 4IIIA′-C′: Immunohistochemical analysis of intact and cleaved galectin-3 in breast cancer progression. To investigate the possible functional significance of this allelic variation, BT-549 stable cell clones over-expressing either Galectin-3 P^64 or H^64 variant after transfection, selection, and cloning of BT-549 galectin-3 null cells were generated. […] In parental and P64 clone, the apoptotic cells were 76.5±1.34% and 71.5±3.02% respectively (FIG. 4I). That the cells' death was due to apoptosis was confirmed by the cleavage of PARP. […] A-A′: normal breast tissue, B-B′: ductal hyperplasia, C-C′: infiltrating lobular carcinoma. Arrows in B′ and C′ indicate the cleaved protein, representative pictures are presented from a study of 5 normal breast tissues, 10 lobular hyperplasia, and 8 infiltrating lobular carcinoma cases. 2500 BT-549, BT-549 Gal-3 H^64 and BT-549 Gal-3 P^64 cells were seeded per well in triplicates onto 24 well culture dishes. In one set of wells, 25 μM cisplatin (Sigma-Aldrich Inc., St. Louis, Mo.) was added after 24 hr of seeding, the other non-treated set served as a control. Cell viability/apoptosis was determined after 72 hours by the mitochondrial-dependent reduction of 3-(4,5-dimethylthiazol-2-yl)-2,5-diphenyltetrazolium bromide (MTT) (Sigma-Aldrich Inc., St. Louis, Mo.) to formazan.

BT-549 cells [5] = assay: Cisplatin induced apoptosis, MTT assay; details: parental BT-549 cells, 25 uM cisplatin, 72 hr, 37° C.
Experimental: as §2

BT-549 Gal-3 H^64 cells [6] = assay: Cisplatin induced apoptosis, MTT assay; details: BT-549 cells expressing galectin-3 H^64 variant, 25 uM cisplatin, 72 hr, 37° C.
Experimental: as §2

Compound: N.N.[Cl][Pt][Cl] [cisplatin]
- PARP cleavage (85 kDa cleaved polypeptide) (BT-549 Gal-3 P^64 cells [1]): showed the 85 kDa cleaved polypeptide of PARP
- PARP cleavage (85 kDa cleaved polypeptide) (BT-549 cells [2]): showed the 85 kDa cleaved polypeptide of PARP
- PARP cleavage (85 kDa cleaved polypeptide) (BT-549 Gal-3 H^64 cells [3]): refractive to PARP cleavage
- apoptotic cells (BT-549 Gal-3 P^64 cells [4]): 71.5±3.02%
- apoptotic cells (BT-549 cells [5]): 76.5±1.34%
- apoptotic cells (BT-549 Gal-3 H^64 cells [6]): 36.2±2.2%
